Tests used:
[1] = biological target: cGMP-specific 3',5'-cyclic phosphodiesterase (Homo sapiens, UniProt O76074); experiment: DRUGMATRIX: Phosphodiesterase PDE5 enzyme inhibition (substrate: [3H]cGMP + cGMP); assay type: tissue-based; details: platelet; Not Active = under 50% inhibition at 10 µM
B2 bradykinin receptor = biological target: T1, B2 bradykinin receptor (Homo sapiens, UniProt P30411); assay type: cell membranes, Membrane; details: chem-1; also: in other assays of this panel Not Active means under 50% inhibition at 10 µM
T1 sequence (P30411 whole entry): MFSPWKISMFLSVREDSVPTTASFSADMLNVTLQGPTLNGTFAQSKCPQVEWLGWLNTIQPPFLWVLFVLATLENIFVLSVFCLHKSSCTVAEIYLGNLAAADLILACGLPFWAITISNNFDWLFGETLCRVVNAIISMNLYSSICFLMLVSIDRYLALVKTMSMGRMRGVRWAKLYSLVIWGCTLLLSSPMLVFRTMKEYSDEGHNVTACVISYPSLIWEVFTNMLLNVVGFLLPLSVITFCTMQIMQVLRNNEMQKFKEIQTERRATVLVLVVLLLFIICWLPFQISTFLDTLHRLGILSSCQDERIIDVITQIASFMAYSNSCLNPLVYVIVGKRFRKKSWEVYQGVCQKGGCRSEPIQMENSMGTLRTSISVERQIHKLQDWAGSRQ

[2] = DRUGMATRIX: Glutamate, AMPA radioligand binding (ligand: [3H] AMPA); assay type: cell membranes, Rattus norvegicus, Wistar, Cerebral cortex, Membrane; details: Not Active = under 50% inhibition at 10 µM
[3] = biological target: Mitogen-activated protein kinase 3 (Homo sapiens, UniProt P27361); experiment: DRUGMATRIX: Protein Serine/Threonine Kinase, ERK1 enzyme inhibition (substrate: Myelin Basic Protein); design: species or system Escherichia coli; details: Not Active = under 50% inhibition at 10 µM
Cytochrome P450 2E1 = Cytochrome P450 2E1 (Homo sapiens, UniProt P05181); details: bti-tn-5b1-4; also: in other assays of this panel Not Active means under 50% inhibition at 10 µM
[4] = biological target: Sodium-dependent noradrenaline transporter (Homo sapiens, UniProt P23975); experiment: DRUGMATRIX: Norepinephrine Transporter radioligand binding (ligand: [125I] RTI-55); assay type: cell membranes, MDCK, Membrane; details: mdck; Not Active = under 50% inhibition at 10 µM
[5] = biological target: 5-hydroxytryptamine receptor 1B (Rattus norvegicus, UniProt P28564); assay type: cell membranes, Wistar, Cerebral cortex, Membrane; also: in other assays of this panel Not Active means under 50% inhibition at 10 µM
Sequence of 5-hydroxytryptamine receptor 1B (P28564 whole entry): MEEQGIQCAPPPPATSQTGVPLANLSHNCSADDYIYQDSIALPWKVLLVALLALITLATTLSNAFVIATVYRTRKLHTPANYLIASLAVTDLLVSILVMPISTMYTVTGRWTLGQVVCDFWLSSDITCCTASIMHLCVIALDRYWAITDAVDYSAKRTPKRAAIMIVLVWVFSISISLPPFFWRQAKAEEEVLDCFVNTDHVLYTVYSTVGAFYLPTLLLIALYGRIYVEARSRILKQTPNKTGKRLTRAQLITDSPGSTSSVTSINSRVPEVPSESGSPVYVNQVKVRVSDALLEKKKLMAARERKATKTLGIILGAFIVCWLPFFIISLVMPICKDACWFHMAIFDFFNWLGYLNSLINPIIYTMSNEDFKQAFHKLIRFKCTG

Sequence of Mitogen-activated protein kinase 3 (P27361 whole entry): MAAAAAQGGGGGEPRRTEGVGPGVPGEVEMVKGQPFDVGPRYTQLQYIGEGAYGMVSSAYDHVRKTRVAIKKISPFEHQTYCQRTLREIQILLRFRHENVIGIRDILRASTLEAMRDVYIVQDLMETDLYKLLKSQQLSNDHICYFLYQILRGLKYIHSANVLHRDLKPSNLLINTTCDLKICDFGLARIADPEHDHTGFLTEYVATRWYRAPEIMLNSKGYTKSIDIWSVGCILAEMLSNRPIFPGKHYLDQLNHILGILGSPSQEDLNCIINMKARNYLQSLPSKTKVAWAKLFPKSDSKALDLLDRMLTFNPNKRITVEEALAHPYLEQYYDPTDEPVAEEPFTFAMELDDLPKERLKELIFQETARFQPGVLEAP
Sequence of Sodium-dependent noradrenaline transporter (P23975 whole entry): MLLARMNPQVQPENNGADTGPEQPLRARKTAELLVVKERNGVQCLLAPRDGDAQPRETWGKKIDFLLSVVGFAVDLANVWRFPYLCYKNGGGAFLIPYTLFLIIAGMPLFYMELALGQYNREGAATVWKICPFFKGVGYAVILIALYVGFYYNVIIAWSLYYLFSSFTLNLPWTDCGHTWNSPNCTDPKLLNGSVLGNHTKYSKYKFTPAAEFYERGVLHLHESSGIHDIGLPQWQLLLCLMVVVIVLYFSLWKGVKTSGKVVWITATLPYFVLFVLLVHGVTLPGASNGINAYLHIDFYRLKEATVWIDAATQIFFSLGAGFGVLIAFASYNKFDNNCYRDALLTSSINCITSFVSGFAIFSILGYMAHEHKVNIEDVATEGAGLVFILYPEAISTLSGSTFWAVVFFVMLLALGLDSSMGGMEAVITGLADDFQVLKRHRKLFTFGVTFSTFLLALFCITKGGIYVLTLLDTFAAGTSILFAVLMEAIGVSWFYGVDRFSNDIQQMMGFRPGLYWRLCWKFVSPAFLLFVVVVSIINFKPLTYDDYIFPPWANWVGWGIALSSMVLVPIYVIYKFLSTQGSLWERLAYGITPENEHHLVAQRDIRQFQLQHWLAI
Sequence of Cytochrome P450 2E1 (P05181 whole entry): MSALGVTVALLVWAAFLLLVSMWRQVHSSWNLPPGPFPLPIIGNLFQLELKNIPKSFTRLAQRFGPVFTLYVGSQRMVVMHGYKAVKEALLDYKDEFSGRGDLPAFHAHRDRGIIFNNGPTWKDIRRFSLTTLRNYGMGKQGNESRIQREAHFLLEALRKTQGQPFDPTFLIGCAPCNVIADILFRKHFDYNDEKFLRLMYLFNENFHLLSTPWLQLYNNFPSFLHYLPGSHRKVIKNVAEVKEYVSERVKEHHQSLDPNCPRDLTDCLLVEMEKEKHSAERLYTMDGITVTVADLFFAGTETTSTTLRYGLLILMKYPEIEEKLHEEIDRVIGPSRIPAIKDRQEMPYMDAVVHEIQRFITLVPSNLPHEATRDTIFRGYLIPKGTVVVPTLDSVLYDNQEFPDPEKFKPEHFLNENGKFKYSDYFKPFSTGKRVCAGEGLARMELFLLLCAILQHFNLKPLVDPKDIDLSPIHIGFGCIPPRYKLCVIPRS

Structure (SMILES) | IC50 [1] | IC50 (B2 bradykinin receptor) | IC50 [2] | Ki [2] | IC50 [3] | IC50 (Cytochrome P450 2E1) | Ki (Cytochrome P450 2E1) | IC50 [4] | IC50 [5] | IC50 ([5]; read-out: IC50) | Ki ([5]; read-out: Ki)
NC[C@H]1CC[C@H](C(=O)O)CC1 [TRANEXAMIC ACID] | Not Active | Not Active | Not Active | Not Active | Not Active | Not Active | Not Active | Not Active | Not Active | – | –
N[C@@H]1[C@H]2CN(c3nc4c(cc3F)c(=O)c(C(=O)O)cn4-c3ccc(F)cc3F)C[C@@H]12 [TROVAFLOXACIN] | Not Active | Not Active | Not Active | Not Active | Not Active | Not Active | Not Active | Not Active | Not Active | – | –
CC[C@@H](CO)NC(=O)[C@@H]1C=C2c3cccc4[nH]cc(c34)C[C@H]2N(C)C1 [METHYLERGONOVINE] | Not Active | Not Active | Not Active | Not Active | Not Active | Not Active | Not Active | Not Active | – | 0.015 µM | 0.00926 µM
Cc1cccc(N(C)C(=S)Oc2ccc3ccccc3c2)c1 [TOLNAFTATE] | Not Active | Not Active | Not Active | Not Active | Not Active | Not Active | Not Active | Not Active | Not Active | – | –
Cc1c(C)c2c(c(C)c1O)CCC(C)(COc1ccc(CC3SC(=O)NC3=O)cc1)O2 (configuration not stated) [TROGLITAZONE] | Not Active | Not Active | Not Active | Not Active | Not Active | Not Active | Not Active | Not Active | Not Active | – | –
CC[C@]1(O)C[C@H]2CN(CCc3c([nH]c4ccccc34)[C@@](C(=O)OC)(c3cc4c(cc3OC)N(C=O)[C@H]3[C@@](O)(C(=O)OC)[C@H](OC(C)=O)[C@]5(CC)C=CCN6CC[C@]43[C@@H]65)C2)C1 [VINCRISTINE] | Not Active | Not Active | Not Active | Not Active | Not Active | Not Active | Not Active | Not Active | Not Active | – | –
COc1c(C)c2c(c(O)c1C/C=C(\C)CCC(=O)O)C(=O)OC2 [MYCOPHENOLIC ACID] | Not Active | Not Active | Not Active | Not Active | Not Active | Not Active | Not Active | Not Active | Not Active | – | –
CSc1ccc(/C=C2/C(C)=C(CC(=O)O)c3cc(F)ccc32)cc1 [SULINDAC SULFIDE] | Not Active | Not Active | Not Active | Not Active | Not Active | Not Active | Not Active | Not Active | Not Active | – | –
O=NN(CCCl)C(=O)NC1CCCCC1 [LOMUSTINE] | Not Active | Not Active | Not Active | Not Active | Not Active | Not Active | Not Active | Not Active | Not Active | – | –

Source: ChEMBL document CHEMBL1909046, “DrugMatrix in vitro pharmacology data”
